Structures can show the parent of a compound that is named as a salt.
Molecular target: BIR2 domain of XIAP (Homo sapiens (Human), UniProt P98170, C202A/C213G)
Experiment: TR-FRET assay for BIR2: inhibition of binding of XIAP BIR2 domain to Peptide A (SMAC-derived peptide);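 note: percent inhibition measured across a concentration series of each compound, from which the IC50 was derived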
Conditions: not given

Chain of BIR2 domain of XIAP (P98170 other isoform, or with tags, fused parts or gaps, stated change not applied): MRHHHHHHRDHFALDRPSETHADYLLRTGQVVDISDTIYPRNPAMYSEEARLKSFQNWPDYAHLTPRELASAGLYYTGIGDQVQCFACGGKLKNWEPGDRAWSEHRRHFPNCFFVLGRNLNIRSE

SMILES	IC50 [µM]
CN[C@@H](C)C(=O)N[C@@H]1C(=O)N(Cc2nn(-c3ccc(C(=O)O)cc3C#N)c3ccccc23)c2ccccc2O[C@H]1C [Example 80, 3-Cyano-4-(3-(((2S,3S)-2-methyl-3-((S)-2-(methylamino)propanamido)-4-oxo-3,4-dihydrobenzo[b][1,4]oxazepin-5(2H)-yl)methyl)-1H-indazol-1-yl)benzoic acid trifluoroacetate]	0.118
CN[C@@H](C)C(=O)N[C@H]1C(=O)N(Cc2c(OC)ccc3cc(Br)ccc23)c2ccccc2OC12CCOCC2 [Example 1f]	4.36
CN[C@@H](C)C(=O)N[C@@H]1C(=O)N(Cc2c(OC)cnc3ccccc23)c2ccccc2OC12CCOCC2 [Example 1r]	0.141
CN[C@@H](C)C(=O)N[C@@H]1C(=O)N(Cc2c(OC)ccc3cc(Br)ccc23)c2ccccc2OC12CCOCC2 [Example 1g]	0.065
CN[C@@H](C)C(=O)N[C@H]1CSc2c(NC(=O)C3CCN(C(C)=O)CC3)cccc2N(Cc2cccc3ccccc23)C1=O [Example 23, 1-Acetyl-piperidine-4-carboxylic acid [(R)-3-((S)-2-methylamino-propionylamino)-5-naphthalen-1-ylmethyl-4-oxo-2,3,4,5-tetrahydro-benzo[b][1,4]thiazepin-9-yl]-amide]	0.373

Same assay, conditions: read-out: BIR2 IC50

SMILES	IC50 [µM]
CN[C@@H](C)C(=O)N[C@H]1COc2c(C(=O)NCCC(=O)O)cccc2N(Cc2c(OC)ccc3cc(Br)ccc23)C1=O [Example 50, 3-{[(S)-9-(6-Bromo-2-methoxy-naphthalen-1-ylmethyl)-74S)-2-methylamino-propionylamino)-8-oxo-6,7,8,9-tetrahydro-5-oxa-9-aza-benzocycloheptene-4-carbonyl]-amino}-propionic acid trifluoroacetate]	0.134
CN[C@@H](C)C(=O)N[C@H]1COc2ccccc2N(Cc2c(OC)ccc3cc(C(=O)O)ccc23)C1=O [Example 32, 6-Methoxy-5-(((S)-3-((S)-2-(methylamino)propanamido)-4-oxo-3,4-dihydrobenzo[b][1,4]oxazepin-5(2H)-yl)methyl)-2-naphthoic acid trifluoroacetate]	0.055
CN[C@@H](C)C(=O)N[C@H]1COc2ccccc2N(Cc2c(OC)ccc3ccccc23)C1=O [Example 29b]	0.198
CN[C@@H](C)C(=O)N[C@H]1COc2c(C(=O)O)cccc2N(Cc2c(OC)ccc3cc(C(=O)O)ccc23)C1=O [Example 52, (S)-5-((6-Carboxy-2-methoxynaphthalen-1-yl)methyl)-3-((S)-2-(methylamino)propanamido)-4-oxo-2,3,4,5-tetrahydrobenzo[b][1,4]oxazepine-9-carboxylic acid trifluoroacetate]	0.059
CN[C@@H](C)C(=O)N[C@@H]1C(=O)N(Cc2c(OC)ccc3cc(Br)ccc23)c2ccc(C)cc2O[C@H]1C [Example 39, (S)-N-((2S,3S)-5-((6-Bromo-2-methoxynaphthalen-1-yl)methyl)-2,8-dimethyl-4-oxo-2,3,4,5-tetrahydrobenzo[b][1,4]oxazepin-3-yl)-2-(methylamino)propanamide trifluoroacetate]	0.054
CN[C@@H](C)C(=O)N[C@H]1COc2ccccc2N(Cc2cc(=O)n(C)c3ccc(F)cc23)C1=O [Example 61, (S)-N-((S)-5-((6-Fluoro-1-methyl-2-oxo-1,2-dihydroquinolin-4-yl)methyl)-4-oxo-2,3,4,5-tetrahydrobenzo[b][1,4]oxazepin-3-yl)-2-(methylamino)propanamide]	0.686
CN[C@@H](C)C(=O)N[C@H]1COc2c(C(=O)O)cccc2N(Cc2c(OC)ccc3cc(Br)ccc23)C1=O [Example 48, (S)-5-((6-bromo-2-methoxynaphthalen-1-yl)methyl)-3-((S)-2-(methylamino)propanamido)-4-oxo-2,3,4,5-tetrahydrobenzo[b][1,4]oxazepine-9-carboxylic acid trifluoroacetate]	0.089
CN[C@@H](C)C(=O)N[C@H]1COc2c(C(=O)O)cccc2N(Cc2ccc(Br)c3ccccc23)C1=O [Example 54, (S)-5-((4-Bromonaphthalen-1-yl)methyl)-3-((S)-2-(methylamino)propanamido)-4-oxo-2,3,4,5-tetrahydrobenzo[b][1,4]oxazepine-9-carboxylic acid trifluoroacetate]	0.649
CN[C@@H](C)C(=O)N[C@H]1COc2c(C(=O)NCc3ccc(C(=O)OC)cc3)cccc2N(Cc2c(OC)ccc3cc(Br)ccc23)C1=O [Example 51, 4-({[(S)-9-(6-Bromo-2-methoxy-naphthalen-1-ylmethyl)-7-((S)-2-methylamino-propionylamino)-8-oxo-6,7,8,9-tetrahydro-5-oxa-9-aza-benzocycloheptene-4-carbonyl]-amino}-methyl)-benzoic acid methyl ester]	0.41
CN[C@@H](C)C(=O)N[C@H]1COc2ccc(C(F)(F)F)cc2N(Cc2c(OC)ccc3cc(Br)ccc23)C1=O [Example 42, (S)-N-((S)-5-((6-Bromo-2-methoxynaphthalen-1-yl)methyl)-4-oxo-7-(trifluoromethyl)-2,3,4,5-tetrahydrobenzo[b][1,4]oxazepin-3-yl)-2-(methylamino)propanamide trifluoroacetate]	0.057
CN[C@@H](C)C(=O)N[C@H]1COc2ccccc2N(Cc2c(OC)ccc3cc(C(=O)OC)ccc23)C1=O [Example 31, Methyl 6-methoxy-5-(((S)-3-((S)-2-(methylamino)propanamido)-4-oxo-3,4-dihydrobenzo[b][1,4]oxazepin-5(2H)-yl)methyl)-2-naphthoate trifluoroacetate]	0.189
CN[C@@H](C)C(=O)N[C@H]1COc2c(C(=O)N3CCN(CCO)CC3)cccc2N(Cc2ccc(Br)c3ccccc23)C1=O [Example 55, (S)-N-((S)-5-((4-Bromonaphthalen-1-yl)methyl)-9-(4-(2-hydroxyethyl)piperazine-1-carbonyl)-4-oxo-2,3,4,5-tetrahydrobenzo[b][1,4]oxazepin-3-yl)-2-(methylamino)propanamide]	0.957
CN[C@@H](C)C(=O)N[C@H]1COc2c(cccc2C(F)(F)F)N(Cc2noc3ccccc23)C1=O [Example 90, (S)-N-((S)-5-(Benzo[d]isoxazol-3-ylmethyl)-4-oxo-9-(trifluoromethyl)-2,3,4,5-tetrahydrobenzo[b][1,4]oxazepin-3-yl)-2-(methylamino)propanamide hydrochloride]	0.49
CCN[C@@H](C)C(=O)N[C@@H]1C(=O)N(Cc2nn(-c3ccccc3C#N)c3ccccc23)c2ccccc2O[C@H]1C [Example 74, (2S)-N-((2S,3S)-5-((1-(2-Cyanophenyl)-1H-indazol-3-yl)methyl)-2-methyl-4-oxo-2,3,4,5-tetrahydrobenzo[b][1,4]oxazepin-3-yl)-2-(ethylamino)propanamide trifluoroacetate]	0.146
CN[C@@H](C)C(=O)N[C@H]1COc2c(C(=O)N3CCN(CCCO)CC3)cccc2N(Cc2ccc(Br)c3ccccc23)C1=O [Example 56, (S)-N-((S)-5-((4-Bromonaphthalen-1-yl)methyl)-9-(4-(3-hydroxypropyl)piperazine-1-carbonyl)-4-oxo-2,3,4,5-tetrahydrobenzo[b][1,4]oxazepin-3-yl)-2-(methylamino)propanamide]	1.6
CCN[C@@H](C)C(=O)N[C@@H]1C(=O)N(Cc2c(C#N)n(-c3ccccc3C#N)c3ccccc23)c2ccccc2O[C@H]1C [Example 77, (S)-N-((2S,3S)-5-((2-Cyano-1-(2-cyanophenyl)-1H-indol-3-yl)methyl)-2-methyl-4-oxo-2,3,4,5-tetrahydrobenzo[b][1,4]oxazepin-3-yl)-2-(ethylamino)propanamide]	0.107
CN[C@@H](C)C(=O)N[C@H]1COc2ccccc2N(Cc2cccc(Cl)c2)C1=O [Example 46, (S)-N-((S)-5-(3-Chlorobenzyl)-4-oxo-2,3,4,5-tetrahydrobenzo[13,][1,4]oxazepin-3-yl)-2-(methylamino)propanamide]	3.11
CN[C@@H](C)C(=O)N[C@@H]1C(=O)N(Cc2c(OC)ccc3cc(Br)ccc23)c2cc(C(F)(F)F)ccc2O[C@H]1C [Example 43, (S)-N-[(6S,7S)-9-(6-Bromo-2-methoxy-naphthalen-1-ylmethyl)-6-methyl-8-oxo-2-trifluoromethyl-6,7,8,9-tetrahydro-5-oxa-9-aza-benzocyclohepten-7-yl]-2-methylamino-propionamide trifluoroacetate]	0.092
CC[C@H](NCCO)C(=O)N[C@H]1COc2ccccc2N(Cc2c(OC)ccc3cc(Br)ccc23)C1=O [Example 83, (S)-N-((S)-5-((6-Bromo-2-methoxynaphthalen-1-yl)methyl)-4-oxo-2,3,4,5-tetrahydrobenzo[b][1,4]oxazepin-3-yl)-2-(2-hydroxyethylamino)butanamide trifluoroacetate]	0.044

Molecular target: BIR3 domain of XIAP (Homo sapiens (Human), UniProt P98170)
Sequence (P98170 241-356 with tags or gaps limits assumed): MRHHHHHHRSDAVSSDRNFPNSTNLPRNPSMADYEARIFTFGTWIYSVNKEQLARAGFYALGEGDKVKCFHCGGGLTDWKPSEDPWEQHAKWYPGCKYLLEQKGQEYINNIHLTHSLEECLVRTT
Experiment: TR-FRET assay for BIR3: inhibition of binding of XIAP BIR3 domain to Peptide A (SMAC-derived peptide)
Conditions: not given

SMILES	IC50 [µM]
[2H]C([2H])([2H])N[C@@H](C)C(=O)N[C@@H]1C(=O)N(Cc2c(OC)ccc3cc(Br)ccc23)c2ccccc2OC12CCOCC2 [Example 19, (2S)-N-(5-((6-Bromo-2-methoxynaphthalen-1-yl)methyl)-(3S)-4-oxo-2′,3′,5′,6′-tetrahydro-3H-spiro[benzo[b][1,4]oxazepine-2,4′-pyran]-3-yl)-2-(methyl-d3-amino)propanamide hydrochloride]	22.9
CN[C@@H](C)C(=O)N[C@H]1CSc2c(NC(=O)C3CCN(C(C)=O)CC3)cccc2N(Cc2cccc3ccccc23)C1=O [Example 23, 1-Acetyl-piperidine-4-carboxylic acid [(R)-3-((S)-2-methylamino-propionylamino)-5-naphthalen-1-ylmethyl-4-oxo-2,3,4,5-tetrahydro-benzo[b][1,4]thiazepin-9-yl]-amide]	> 54.8

Same assay, conditions: read-out: BIR3 IC50

SMILES	IC50 [µM]
CN[C@@H](C)C(=O)N[C@H]1CSc2c(NC(=O)COCCOC)cccc2N(Cc2cccc3ccccc23)C1=O [Example 22, (S)-N-{(R)-9-[2-(2-Methoxy-ethoxy)-acetylamino]-5-naphthalen-1-ylmethyl-4-oxo-2,3,4,5-tetrahydro-benzo[b][1,4]thiazepin-3-yl}-2-methylamino-propionamide hydrochloride]	> 54.8
CC[C@H](NC)C(=O)N[C@@H]1C(=O)N(Cc2c(OC)ccc3cc(Br)ccc23)c2ccc(F)cc2OC12CCOCC2 [Example 16, (2S)-N-(5-((6-Bromo-2-methoxynaphthalen-1-yl)methyl)-(3S)-8-fluoro-4-oxo-2′,3′,5′,6′-tetrahydro-3H-spiro[benzo[b][1,4]oxazepine-2,4′-pyran]-3-yl)-2-(methylamino)butanamide hydrochloride]	> 50
CCN[C@@H](C)C(=O)N[C@@H]1C(=O)N(Cc2nn(-c3ccccc3C#N)c3ccccc23)c2ccccc2O[C@H]1C [Example 74, (2S)-N-((2S,3S)-5-((1-(2-Cyanophenyl)-1H-indazol-3-yl)methyl)-2-methyl-4-oxo-2,3,4,5-tetrahydrobenzo[b][1,4]oxazepin-3-yl)-2-(ethylamino)propanamide trifluoroacetate]	> 54.8
CCN[C@@H](C)C(=O)N[C@@H]1C(=O)N(Cc2c(C#N)n(-c3ccccc3C#N)c3ccccc23)c2ccccc2O[C@H]1C [Example 77, (S)-N-((2S,3S)-5-((2-Cyano-1-(2-cyanophenyl)-1H-indol-3-yl)methyl)-2-methyl-4-oxo-2,3,4,5-tetrahydrobenzo[b][1,4]oxazepin-3-yl)-2-(ethylamino)propanamide]	> 54.8
